The text below walks through data of US7635685B2 (priority 2003, dated 2009).

What is called LD50 is the dose expected to kill half of the subjects tested. The Kd is the equilibrium constant for the complex coming apart.

In brackets after ≈: the same amount, converted by molar mass. Several values for one entry are separate records, joined by “and”; a condition that tells them apart may be missing. Equal values may be shown once. Read-outs that look alike come from different tables or passages of the source. A value given as a limit tells only on which side of the number the result lay.

The conditions of data set [1]: in vivo; cited from earlier work.
Data set [2] concerns the target 27-mer 16S A site RNA construct (AS-wt). It counts as binding.
The subject of data set [3] is B. anthracis (Sterne strain). Description: microbe, parasite or virus in culture. The class given is cell-based, Bacillus anthracis.
In the next data set the test system is E. coli strains. Briefly: microbe, parasite or virus in culture. It counts as cell-based.
In another data set the test system is E. coli XL1(pET9d). Briefly: microbe, parasite or virus in culture. The class given is cell-based.
For data set [4], the system named is Pseudomonas aeruginosa (ATCC 27853). Description: microbe, parasite or virus in culture. The class given is cell-based.
Data set [5] relates to Salmonella virchow (SV49). Description: microbe, parasite or virus in culture. The class given is cell-based.
The test system of data set [6] is Staphylococcus epidermidis. Briefly: microbe, parasite or virus in culture. It counts as cell-based.
In the next data set the test system is Bacillus subtilis. Briefly: microbe, parasite or virus in culture. The class given is cell-based.
Data set [7] deals with adenylyl(3′-5′)-adenosine (ApA). The following applies: cited from earlier work.

In the case of `NC[C@@H]1O[C@H](O[C@H]2[C@@H](O)[C@H](O[C@@H]3[C@@H](O)[C@H](N)C[C@H](N)[C@H]3O[C@H]3O[C@H](CO)[C@@H](O)C[C@H]3N)O[C@@H]2CO)[C@H](N)[C@@H](O)[C@@H]1O[C@H]1O[C@H](CO)[C@@H](O)[C@H](O)[C@@H]1O` [lividomycin], the LD50 in [1] is 280 mg/kg.
`NCC1O[C@H](O[C@@H]2C(N)C[C@@H](N)C(O)[C@H]2O[C@@H]2O[C@H](CS[C@@H]3O[C@H](CO)[C@H](O)C3O)[C@H](O[C@H]3O[C@@H](CN)[C@@H](O)C(O)C3N)C2O)C(N)[C@@H](O)[C@@H]1O` (stereo partly shown) [Compound XI]: the Kd in data set [2] (read-out: Kd) was determined as 1 ± 0.2 µM. Moreover, the MIC in data set [3] (Bacillus anthracis, 18 h) is 2 mg/L (≈ 2.62 µM); with E. coli strains (Escherichia coli), 30 to 40 mg/L (≈ 39.3 to 52.4 µM); in the data set on E. coli strains (Escherichia coli, ATCC25922), 25 to 40 mg/L (≈ 32.8 to 52.4 µM); against E. coli XL1(pET9d) (Escherichia coli) it was greater than 200 mg/L; in [4] (Pseudomonas aeruginosa, ATCC27853) it was 200 to 400 mg/L (≈ 262 to 524 µM); in data set [5] (Salmonella enterica), greater than 250 mg/L. The MIC in data set [6] (Staphylococcus epidermidis, ATCC12228) was 1.5 to 3 mg/L (≈ 1.97 to 3.93 µM); against Bacillus subtilis (Bacillus subtilis, ATCC6633), 1 to 2.5 mg/L (≈ 1.31 to 3.28 µM).
On to `NCC1O[C@H](OC2C(O)[C@H](OC3C(O)[C@H](N)CC(N)[C@H]3O[C@H]3OC(CN)[C@@H](O)C(O)C3N)O[C@@H]2CO[C@@H]2OC(CO)[C@@H](O)C(O)C2O)C(N)C(O)[C@@H]1O` (stereo partly shown) [Compound XII], for which, in [2] (read-out: Kd), the Kd turned out to be 1.1 ± 0.2 µM. Also, in data set [3] (Bacillus anthracis, 18 h), the MIC stood at 8 mg/L (≈ 10.3 µM).
`NC[C@@H]1O[C@H](O[C@H]2[C@@H](O)[C@H](O[C@@H]3[C@@H](O)[C@H](N)C[C@H](N)[C@H]3O[C@H]3O[C@H](CO)[C@@H](O)[C@H](O)[C@H]3N)O[C@@H]2CO)[C@H](N)[C@@H](O)[C@@H]1O` [paromomycin]: in data set [1], the LD50 was 160 mg/kg.
As to `NC[C@H]1O[C@H](O[C@H]2[C@H](O[C@@H]3O[C@H](CO)[C@@H](O)[C@H]3O)[C@@H](O)[C@H](N)C[C@@H]2N)[C@H](N)[C@@H](O)[C@@H]1O` [ribostamycin], in [1], the median lethal dose (LD50) is 260 mg/kg.
For the molecule neomycin B, in data set [2] (read-out: binding constant Kd to 16S A site RNA), the Kd came out at 0.3 µM. Further, the MIC in [3] is 0.25 mg/L; in the data set with E. coli strains, 4 to 5.5 mg/L and 8 to 10 mg/L; against E. coli XL1(pET9d), 50 to 60 mg/L; in data set [4] it was 55 to 60 mg/L; in data set [5] it was 200 to 250 mg/L; in data set [6] it was 0.3 to 0.4 mg/L. The MIC with Bacillus subtilis fell in the range of 0.8 to 0.9 mg/L. For the same molecule, the “first-order rate constants lower than those reported for natural ribozymes” value in data set [7] is recorded as “over 1000 fold”. Moreover, the “hydrolysis of ApA faster than 1,3-propanediamine” value in [7] is reported as 3 fold. Moreover, in data set [1], the LD50 is reported as 24 mg/kg.
As for `NC[C@H]1O[C@H](O[C@H]2[C@H](O)[C@@H](O[C@H]3O[C@H](CO)[C@@H](O)[C@H](N)[C@H]3O)[C@H](N)C[C@@H]2N)[C@H](O)[C@@H](O)[C@@H]1O` [KAN], the values for the MIC (in the data set with E. coli XL1(pET9d); in data set [4]; in data set [5]) were 260 to 270 mg/L, 400 to 500 mg/L and 500 to 570 mg/L, respectively.
